# Measurements reported in patent publication US12390467B2, “Necroptosis inducers or autophagy inhibitors or a combination thereof” (The University of Toledo, priority 2018, dated 2025).
# Read-outs that look alike come from different tables or passages of the source.
# Legend:
# Format in all cases: cell-based
# [1] = tested on: ZR-75-1 (non-TNBC cell line); test: MTT cell viability assay, ZR-75-1; settings: read-out: IC50 ± SD, ZR-75-1
# Procedure: The following cancer and non-cancer cell lines were used in the initial cytotoxicity screening of the TPH104 compounds: triple negative breast cancer (TNBC): MDA-MB468, MDA-MB 231, and BT-20; non-TNBC: MCF-7 and ZR-75-1; ovarian: Ov2008; prostate: DU145; colon: HCT-116, S1, and LOVO; lung: H460; normal kidney: HEK-293; normal breast: HMEC; and normal colon: CRL-1459. All cells were cultured in Dulbecco's modified Eagle medium (DMEM), supplemented with 10% fetal bovine serum (FBS), and 1% penicillin/streptomycin (P/S). Cells were allowed to grow as adherent monolayers in T25 flasks in a humidified incubator with 5% CO2 at 37° C. for a period of 24 h, unless otherwise specified for certain experiments.
# The MTT assay was used to determine the cytotoxicity of all of the compounds. Briefly, in a 96-well flat-bottom cell culture plate, the cells were seeded at a density between 3-5×10^3 cells/well (180 μl in each well) and incubated for 24 h (a hemocytometer was used for cell counting). The next day, the cells were incubated with different concentrations of the nine compounds (0, 0.1, 0.3, 1, 3, 10, 30, and 100 μM) for 72 h. After 72 h, 20 μl of 5 mg/ml of 3-(4,5-dimethylthiazol-2-yl)-2,5-diphenyltetrazolium bromide (MTT) was added to the plate and incubated with the cells for 3 h at 37° C. In this experiment, the living cells will reduce the soluble MTT dye to non-soluble purple formazan crystals. Following incubation, the media containing MTT removed via suction and 100 μL of 100% dimethyl sulfoxide (DMSO) was added to dissolve the formazan crystals. Subsequently, the plate was shaken for 2 minutes and the absorbance was measured at a wavelength of 570 nm using a SpectraMax iD3 Multi-Mode Microplate Reader (Molecular Devices, Sunnyvale, CA). The IC50 values of each compound were calculated and used to determine the selectivity ratio (IC50 in normal cells/IC50 in cancer cells) of each compound as previously described. Based on the results obtained from these experiments, the compound TPH104, which had the lowest IC50 value, was selected for further experiments.
# [2] = tested on: BT-20 and MDA-MB468 cells; test: Mitochondrial membrane potential assay (MitoTracker Red / Alexa Fluor 488 annexin V); settings: 0.5, 1, and 2 μM
# Procedure: This assay is a direct measure of the structural integrity of mitochondria. Cells were seeded as indicated in the cell cycle assay and incubated for 24 h at 37° C. The next day, TPH104 (0.5, 1, 2 μM) or vehicle and incubated with the cells for 12 h. The cells were harvested, washed 2× with PBS, counted, and their concentrations were adjusted to 5×10^6 cells/well in the culture medium. Subsequently, 4 μl of the 10 μM solution of mitotracker red was added to each 1 ml aliquot of cells and incubated with the cells for 30 minutes at 37° C. The cells were washed 2× with PBS and re-suspended in the 100 μl of 1× annexin-binding buffer. The cells were stained with Alexa Fluor for 15 minutes and analyzed using flow cytometry as described in the manufacturer protocol (Thermofisher, USA).
# [3] = tested on: BT-20 or MDA-MB468 cells; test: Cellular reactive oxygen species (ROS) detection assay (H2DCFDA); settings: 1, 2, and 5 μM, 12 h
# Procedure: To assess the effect of TPH104 on the generation of ROS, a cell permeant, fluorogenic dye, 2′,7′-dichlorofluorescin diacetate, H2DCFDA, was used. A 5 mM stock solution was prepared using DMSO and PBS was used to prepare the 3 μM working solution of H2DCFDA. The TNBC cells were seeded in a 6-well plate as described in the cell cycle assay. After overnight incubation, cells were incubated with different TPH104 (1, 2, 5 μM) or vehicle for 12 h or with 2 μM of paclitaxel (positive control) for 2 h. The H2DCFDA dye (3 μM) was added to each well and the plate was incubated for an additional 30 minutes. Subsequently, cells were washed 3 times in PBS to remove excess H2DCFDA dye. Thereafter, cells from each well were captured from randomly selected fields using a fluorescent microscope (EVOS-FLC cell imaging system, Thermofisher scientific) at 40× to determine the 2′,7′-dichlorofluorescein (DCF) fluorescence intensity, which is positively correlated with the generation of ROS.
# [4] = tested on: RAW264.7 macrophage cells; test: Optically activated migration of RAW264.7 cells; settings: 10 μM
# Procedure: FIGS. 13A-13B: The in vitro effect of TPH104 on the migratory and invasive properties of MDA-MB231 TNBC cells using the wound healing assay. […] Control cells were incubated with 11-cis retinal (50 μM) for 5 minutes in the dark. A confined optical input of 445 nm was placed in-front of cells using a user-defined region of interest (ROI) and optically activated (OA) continuously in the direction of cell migration pathway for 20 minutes (OA=blue box). Cells were incubated with 10 μM of TPH104 for 30 minutes, followed by incubation with 11-cis retinal (50 μM) for 5 minutes in the dark. Scale=5 μm.
# To further confirm the anti-migratory effect of TPH104, RAW264.7 macrophage cells were incubated with 10 μM TPH104 and its effect on Gai-coupled-GPCR activation was determined.
# [5] = tested on: BT-20 cells; test: Acridine orange assay; settings: TPH104, 12 h, vs vehicle
# Procedure: The cell-permeant, nucleic acid binding dye, acridine orange (AO) was used to assess the effect of TPH104 on the activation of lysosomes. A 10 μg/ml stock solution was prepared using PBS. The TNBC cells were seeded in a 6-well plate as described in the cell cycle assay. After overnight incubation, cells were incubated with TPH104 (1, 2, 5 μM), vehicle or 20 uM of chloroquine (CQ, […]) for 12 h. The media was removed via suction and 1 ml of AO, diluted in 1:1000 in PBS, was added to each well and the plate was incubated for an additional 30 minutes. Cells were washed three times in PBS to remove excess dye. The cells from each well were captured from randomly selected fields using a fluorescent microscope (EVOS-FLC cell imaging system, Thermofisher scientific) at 40× to determine the AO fluorescence intensity which is positively correlated to lysosomal activation.
smiles,measurement,setting,value
COc1ccc(O)c(/C=N/Nc2ncnc3scc(-c4ccc(C)cc4)c23)c1 [TPH104],IC50,[1]; 72 h,8.56 ± 1.95 µM
same,IC50,"[1]; Homo sapiens, ZR-75-1, 72 h",8.6 µM
same,mitochondrial membrane potential,[2],did not significantly alter
same,"number of cells in the second quadrant (Q2), apoptotic cells",[2]; flow cytometry,did not significantly alter
same,DCF fluorescence levels (ROS),[3],did not significantly alter
same,migration of RAW264.7 cells,[4],significantly decreased
same,fluorescence intensity of the acridine orange (AO) dye,[5],did not show a significant increase
